We go through six compounds from ChEMBL document CHEMBL1201862, “PubChem BioAssay data set” (2004).

Activity calls are given as the source filed them. Where only a bound is given, the exact number is not on record here.

Assay [1] deals with Serine/threonine-protein kinase Chk1 (Homo sapiens, UniProt O14757). The class given is functional.
A further assay deals with Focal adhesion kinase 1 (Homo sapiens, UniProt Q05397). In kind it is functional.
Assay [2] concerns the target Hepatocyte growth factor receptor (Homo sapiens, UniProt P08581). In kind it is functional.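 Note: kinase panel profiling across the kinome, with MET as the panel member.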
Assay [3] concerns the target Platelet-derived growth factor receptor beta (Homo sapiens, UniProt P09619). In kind it is functional.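 Note: value comes from a kinome panel, with PDGFRB tested as one panel member.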
Assay [4] can be described thus: Trypanosoma cruzi growth suppression in host cells – NIH3T3 host cells, beta-gal luminescence, confirmation (AID 2044).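 Note: intracellular parasites grown in NIH/3T3 mouse fibroblasts as host cells; luminescent beta-galactosidase reporter signal from transgenic T. cruzi replicating inside host cells; inhibitors lower the luminescence signal.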 The class given is functional, cell-based.
The nature of assay [5]: luciferase reporter signal suppression in cells – H4 neuroglioma cells, luminescence, dose response (AID 1990). The class given is functional, cell-based.
A short description of assay [6]: NIH3T3 cell viability loss – ATP luminescence, mouse fibroblasts, counter-screen, dose response (AID 2010).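 Note: cells exposed to compound for about 90 hours before reading.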 The class given is functional, cell-based.
The next assay addresses T1, Hexokinase-1 (Homo sapiens, UniProt P19367).
T1 sequence (P19367 whole entry): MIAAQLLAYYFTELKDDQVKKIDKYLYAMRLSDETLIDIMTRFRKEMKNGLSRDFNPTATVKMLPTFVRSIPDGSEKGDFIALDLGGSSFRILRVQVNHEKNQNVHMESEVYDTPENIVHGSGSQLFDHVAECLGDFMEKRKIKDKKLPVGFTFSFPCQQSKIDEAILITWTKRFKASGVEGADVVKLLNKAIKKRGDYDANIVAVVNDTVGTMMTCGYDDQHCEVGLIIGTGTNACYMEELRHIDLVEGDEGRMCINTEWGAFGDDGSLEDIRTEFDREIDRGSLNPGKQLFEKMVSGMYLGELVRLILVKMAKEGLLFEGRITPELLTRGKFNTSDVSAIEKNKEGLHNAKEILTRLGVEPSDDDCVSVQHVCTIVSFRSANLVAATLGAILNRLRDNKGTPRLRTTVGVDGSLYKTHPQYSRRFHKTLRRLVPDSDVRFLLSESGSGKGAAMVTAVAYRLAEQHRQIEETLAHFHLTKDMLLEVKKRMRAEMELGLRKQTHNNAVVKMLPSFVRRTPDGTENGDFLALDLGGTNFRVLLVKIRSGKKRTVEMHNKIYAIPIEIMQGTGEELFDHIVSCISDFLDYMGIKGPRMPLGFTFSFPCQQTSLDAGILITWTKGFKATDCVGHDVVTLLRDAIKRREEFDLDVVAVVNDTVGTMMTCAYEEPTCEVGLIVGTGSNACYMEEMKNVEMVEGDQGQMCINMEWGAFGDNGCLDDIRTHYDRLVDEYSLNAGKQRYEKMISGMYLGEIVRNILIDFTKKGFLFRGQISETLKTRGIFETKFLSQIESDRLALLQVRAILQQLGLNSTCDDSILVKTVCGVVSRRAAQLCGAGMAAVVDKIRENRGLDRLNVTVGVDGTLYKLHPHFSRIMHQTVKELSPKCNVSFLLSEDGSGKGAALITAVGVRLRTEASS
Description: HK1 enzyme activation by HKDC1 hits – biochemical, selectivity assay for HKDC1 activator project, dose response (AID 504762). The class given is functional.

The target of assay [7] is ATP-dependent molecular chaperone HSP82 (Candida albicans (strain WO-1) (Yeast), UniProt C4YTQ8). Description: steroid-induced GRE reporter decrease in yeast – S. cerevisiae, luminescence, Hsp90 inhibitor project, dose response (AID 2400).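 Note: beta-galactosidase luminescence from glucocorticoid response element reporter as proxy for Hsp90 function; inhibitor potency where signal loss means Hsp90 inhibition.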 In kind it is functional, cell-based.
Assay [8] has as its target Serine/threonine-protein kinase N2 (Homo sapiens, UniProt Q16513). The class given is functional.
The target of assay [9] is Cell division cycle 7-related protein kinase (Homo sapiens, UniProt O00311). The class given is functional.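 Note: value obtained from a kinome-wide kinase panel.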
For assay [10], the target named is Calcium/calmodulin-dependent protein kinase type II subunit delta (Homo sapiens, UniProt Q13557). In kind it is functional.
For assay [11], the target named is T2, Short transient receptor potential channel 4 (Mus musculus, UniProt Q9QUQ5).
T2 sequence (Q9QUQ5 whole entry): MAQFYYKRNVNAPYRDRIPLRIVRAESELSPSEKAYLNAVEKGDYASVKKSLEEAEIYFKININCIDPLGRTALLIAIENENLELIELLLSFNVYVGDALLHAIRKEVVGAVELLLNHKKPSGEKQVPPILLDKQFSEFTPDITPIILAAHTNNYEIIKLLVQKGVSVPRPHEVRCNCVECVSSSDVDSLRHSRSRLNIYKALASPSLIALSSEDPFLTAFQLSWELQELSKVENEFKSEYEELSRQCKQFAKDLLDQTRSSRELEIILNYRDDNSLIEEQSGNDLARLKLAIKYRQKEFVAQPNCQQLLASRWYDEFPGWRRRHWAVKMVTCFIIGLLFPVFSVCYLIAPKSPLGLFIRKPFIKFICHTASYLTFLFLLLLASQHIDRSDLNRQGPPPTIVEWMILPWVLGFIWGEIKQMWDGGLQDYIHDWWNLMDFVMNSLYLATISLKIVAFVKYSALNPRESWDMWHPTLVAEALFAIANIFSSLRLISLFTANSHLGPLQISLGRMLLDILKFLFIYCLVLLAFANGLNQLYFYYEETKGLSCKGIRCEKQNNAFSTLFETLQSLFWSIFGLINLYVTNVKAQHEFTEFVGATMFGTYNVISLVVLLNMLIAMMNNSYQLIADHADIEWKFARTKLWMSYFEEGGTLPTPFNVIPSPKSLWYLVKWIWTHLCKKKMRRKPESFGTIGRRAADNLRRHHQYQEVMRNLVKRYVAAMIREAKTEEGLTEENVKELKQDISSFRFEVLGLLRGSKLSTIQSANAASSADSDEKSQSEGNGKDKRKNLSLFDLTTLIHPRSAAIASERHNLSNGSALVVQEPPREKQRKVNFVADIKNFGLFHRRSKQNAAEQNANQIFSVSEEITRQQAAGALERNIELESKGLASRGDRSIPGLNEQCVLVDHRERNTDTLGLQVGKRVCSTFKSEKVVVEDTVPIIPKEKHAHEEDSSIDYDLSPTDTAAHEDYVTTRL
Description: calcium entry via TRPC4 opening agents – cell-based, HEK293 TRPC4/mu-opioid, Fluo-4 calcium, dose response (AID 434937). In kind it is functional.

Assay [12] in a line: cells. The class given is functional, cell-based.
A short description of assay [13]: cells. The class given is functional, cell-based. This is another data set of the same source.
For the next assay, the target named is Prothrombin (Bos taurus, UniProt P00735). Description: thrombin protease inhibitors – biochemical, fluorescence polarization, uHTS hits, dose response (AID 602369). In kind it is functional.
Assay [14] concerns BJ. Description: BJ-TERT-LT-ST fibroblast viability loss – cell-based, RAS-independent, luminescence, dose response (AID 1935).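 Note: BJ fibroblasts immortalized with TERT plus LT and ST oncogenes.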 The class given is functional. Conditions: Homo sapiens.
Assay [15] relates to BJ. Description: BJ-TERT fibroblast viability loss – cell-based, RAS-independent, luminescence, dose response (AID 1933). The class given is functional. As to conditions: Homo sapiens.
The target of the next assay is SUMO-activating enzyme (Homo sapiens, UniProt Q9UBT2). Description: blockers of SAE1/SAE2–UBC9 SUMO transfer – biochemical, HTRF, uHTS, primary screen (AID 2006). The class given is protein-complex assay.

Sequence of Calcium/calmodulin-dependent protein kinase type II subunit delta (Q13557 whole entry): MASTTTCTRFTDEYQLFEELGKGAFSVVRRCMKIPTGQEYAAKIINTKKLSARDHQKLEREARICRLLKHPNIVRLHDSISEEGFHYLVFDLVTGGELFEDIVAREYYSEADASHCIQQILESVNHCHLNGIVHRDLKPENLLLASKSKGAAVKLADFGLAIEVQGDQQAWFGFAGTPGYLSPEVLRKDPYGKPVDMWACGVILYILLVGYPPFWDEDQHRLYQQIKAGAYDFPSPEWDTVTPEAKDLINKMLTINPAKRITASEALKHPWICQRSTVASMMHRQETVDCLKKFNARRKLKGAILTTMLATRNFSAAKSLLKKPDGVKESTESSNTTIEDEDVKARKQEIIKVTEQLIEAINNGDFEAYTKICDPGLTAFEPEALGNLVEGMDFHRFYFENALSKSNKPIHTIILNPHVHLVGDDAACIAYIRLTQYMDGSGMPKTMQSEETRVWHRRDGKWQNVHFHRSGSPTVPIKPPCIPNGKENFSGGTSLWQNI
Sequence of Serine/threonine-protein kinase Chk1 (O14757 whole entry): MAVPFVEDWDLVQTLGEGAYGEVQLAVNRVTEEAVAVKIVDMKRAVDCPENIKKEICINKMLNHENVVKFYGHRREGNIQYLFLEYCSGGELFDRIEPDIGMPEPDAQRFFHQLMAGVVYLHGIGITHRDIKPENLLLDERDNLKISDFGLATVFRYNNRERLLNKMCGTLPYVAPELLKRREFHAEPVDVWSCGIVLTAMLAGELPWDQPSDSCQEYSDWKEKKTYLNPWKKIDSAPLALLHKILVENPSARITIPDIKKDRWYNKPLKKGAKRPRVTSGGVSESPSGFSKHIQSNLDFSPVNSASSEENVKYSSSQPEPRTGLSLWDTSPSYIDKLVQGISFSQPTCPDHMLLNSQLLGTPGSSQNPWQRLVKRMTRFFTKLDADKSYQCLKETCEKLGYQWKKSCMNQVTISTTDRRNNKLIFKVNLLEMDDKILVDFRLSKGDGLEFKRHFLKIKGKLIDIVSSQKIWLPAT
Sequence of Cell division cycle 7-related protein kinase (O00311 whole entry): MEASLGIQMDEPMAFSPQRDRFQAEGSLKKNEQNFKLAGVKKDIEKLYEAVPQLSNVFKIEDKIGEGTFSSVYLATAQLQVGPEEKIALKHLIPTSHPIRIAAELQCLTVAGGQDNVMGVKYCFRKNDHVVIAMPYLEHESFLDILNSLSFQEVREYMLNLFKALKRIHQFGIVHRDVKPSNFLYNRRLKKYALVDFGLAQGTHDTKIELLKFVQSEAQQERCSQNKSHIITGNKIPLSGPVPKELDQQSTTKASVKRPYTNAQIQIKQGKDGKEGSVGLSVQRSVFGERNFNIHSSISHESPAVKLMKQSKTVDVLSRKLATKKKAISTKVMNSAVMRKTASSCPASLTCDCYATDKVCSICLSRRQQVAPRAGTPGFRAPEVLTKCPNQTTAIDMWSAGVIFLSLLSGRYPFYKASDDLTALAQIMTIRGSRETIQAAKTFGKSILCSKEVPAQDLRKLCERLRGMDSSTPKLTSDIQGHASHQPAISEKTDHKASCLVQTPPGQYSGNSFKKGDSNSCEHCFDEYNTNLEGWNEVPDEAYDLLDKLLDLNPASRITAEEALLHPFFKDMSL
Sequence of Focal adhesion kinase 1 (Q05397 whole entry): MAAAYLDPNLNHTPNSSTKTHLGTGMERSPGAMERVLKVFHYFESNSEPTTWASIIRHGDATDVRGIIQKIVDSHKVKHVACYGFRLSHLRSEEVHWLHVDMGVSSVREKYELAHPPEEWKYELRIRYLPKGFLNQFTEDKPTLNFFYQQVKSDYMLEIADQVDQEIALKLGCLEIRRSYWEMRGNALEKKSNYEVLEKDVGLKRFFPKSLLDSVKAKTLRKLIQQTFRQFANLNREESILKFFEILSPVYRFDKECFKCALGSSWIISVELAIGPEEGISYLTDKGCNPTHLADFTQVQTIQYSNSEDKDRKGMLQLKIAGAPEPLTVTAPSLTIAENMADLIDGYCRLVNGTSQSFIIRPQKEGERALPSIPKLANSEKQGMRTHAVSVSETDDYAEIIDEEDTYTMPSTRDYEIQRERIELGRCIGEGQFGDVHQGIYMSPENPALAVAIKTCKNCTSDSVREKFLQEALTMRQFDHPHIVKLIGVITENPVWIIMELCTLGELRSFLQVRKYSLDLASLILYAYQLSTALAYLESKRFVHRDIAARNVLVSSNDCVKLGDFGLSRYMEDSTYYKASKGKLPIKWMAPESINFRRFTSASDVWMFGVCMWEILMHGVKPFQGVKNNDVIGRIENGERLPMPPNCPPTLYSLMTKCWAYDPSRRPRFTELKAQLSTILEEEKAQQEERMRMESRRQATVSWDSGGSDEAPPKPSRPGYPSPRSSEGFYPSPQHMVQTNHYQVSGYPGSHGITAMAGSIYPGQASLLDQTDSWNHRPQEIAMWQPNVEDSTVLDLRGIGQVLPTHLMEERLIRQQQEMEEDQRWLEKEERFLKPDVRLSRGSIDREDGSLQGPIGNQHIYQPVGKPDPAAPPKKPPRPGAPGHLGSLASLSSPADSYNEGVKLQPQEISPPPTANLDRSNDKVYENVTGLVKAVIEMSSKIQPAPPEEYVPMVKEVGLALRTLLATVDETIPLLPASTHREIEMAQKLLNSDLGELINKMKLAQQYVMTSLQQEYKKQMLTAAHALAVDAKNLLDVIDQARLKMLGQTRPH
Sequence of Platelet-derived growth factor receptor beta (P09619 whole entry): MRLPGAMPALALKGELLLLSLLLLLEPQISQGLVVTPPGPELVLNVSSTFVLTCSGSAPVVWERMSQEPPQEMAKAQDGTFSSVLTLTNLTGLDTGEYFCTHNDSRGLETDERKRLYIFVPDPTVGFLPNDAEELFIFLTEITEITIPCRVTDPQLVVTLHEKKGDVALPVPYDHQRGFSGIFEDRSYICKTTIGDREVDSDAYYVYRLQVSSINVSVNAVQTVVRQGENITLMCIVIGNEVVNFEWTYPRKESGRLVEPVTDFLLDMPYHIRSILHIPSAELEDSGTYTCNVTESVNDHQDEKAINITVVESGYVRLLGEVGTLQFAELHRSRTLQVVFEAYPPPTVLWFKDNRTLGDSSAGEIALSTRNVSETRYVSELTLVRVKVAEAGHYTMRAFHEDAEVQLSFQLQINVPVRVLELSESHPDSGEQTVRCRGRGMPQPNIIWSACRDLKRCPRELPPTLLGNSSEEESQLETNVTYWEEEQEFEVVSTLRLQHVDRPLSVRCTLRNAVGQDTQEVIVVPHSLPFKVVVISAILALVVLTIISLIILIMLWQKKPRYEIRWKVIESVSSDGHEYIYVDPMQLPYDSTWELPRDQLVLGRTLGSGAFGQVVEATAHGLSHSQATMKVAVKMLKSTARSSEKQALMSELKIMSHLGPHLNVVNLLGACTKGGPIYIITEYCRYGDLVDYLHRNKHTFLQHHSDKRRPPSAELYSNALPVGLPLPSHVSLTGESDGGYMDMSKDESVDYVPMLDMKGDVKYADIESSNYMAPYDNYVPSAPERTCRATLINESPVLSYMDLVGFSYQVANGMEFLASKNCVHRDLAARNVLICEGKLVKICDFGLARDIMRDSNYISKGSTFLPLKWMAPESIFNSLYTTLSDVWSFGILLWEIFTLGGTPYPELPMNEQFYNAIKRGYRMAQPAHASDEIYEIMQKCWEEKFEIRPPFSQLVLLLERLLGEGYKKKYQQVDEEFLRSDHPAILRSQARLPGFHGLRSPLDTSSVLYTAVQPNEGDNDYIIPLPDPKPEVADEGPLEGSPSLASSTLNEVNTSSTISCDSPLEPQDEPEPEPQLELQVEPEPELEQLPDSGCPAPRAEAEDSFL
Sequence of Hepatocyte growth factor receptor (P08581 whole entry): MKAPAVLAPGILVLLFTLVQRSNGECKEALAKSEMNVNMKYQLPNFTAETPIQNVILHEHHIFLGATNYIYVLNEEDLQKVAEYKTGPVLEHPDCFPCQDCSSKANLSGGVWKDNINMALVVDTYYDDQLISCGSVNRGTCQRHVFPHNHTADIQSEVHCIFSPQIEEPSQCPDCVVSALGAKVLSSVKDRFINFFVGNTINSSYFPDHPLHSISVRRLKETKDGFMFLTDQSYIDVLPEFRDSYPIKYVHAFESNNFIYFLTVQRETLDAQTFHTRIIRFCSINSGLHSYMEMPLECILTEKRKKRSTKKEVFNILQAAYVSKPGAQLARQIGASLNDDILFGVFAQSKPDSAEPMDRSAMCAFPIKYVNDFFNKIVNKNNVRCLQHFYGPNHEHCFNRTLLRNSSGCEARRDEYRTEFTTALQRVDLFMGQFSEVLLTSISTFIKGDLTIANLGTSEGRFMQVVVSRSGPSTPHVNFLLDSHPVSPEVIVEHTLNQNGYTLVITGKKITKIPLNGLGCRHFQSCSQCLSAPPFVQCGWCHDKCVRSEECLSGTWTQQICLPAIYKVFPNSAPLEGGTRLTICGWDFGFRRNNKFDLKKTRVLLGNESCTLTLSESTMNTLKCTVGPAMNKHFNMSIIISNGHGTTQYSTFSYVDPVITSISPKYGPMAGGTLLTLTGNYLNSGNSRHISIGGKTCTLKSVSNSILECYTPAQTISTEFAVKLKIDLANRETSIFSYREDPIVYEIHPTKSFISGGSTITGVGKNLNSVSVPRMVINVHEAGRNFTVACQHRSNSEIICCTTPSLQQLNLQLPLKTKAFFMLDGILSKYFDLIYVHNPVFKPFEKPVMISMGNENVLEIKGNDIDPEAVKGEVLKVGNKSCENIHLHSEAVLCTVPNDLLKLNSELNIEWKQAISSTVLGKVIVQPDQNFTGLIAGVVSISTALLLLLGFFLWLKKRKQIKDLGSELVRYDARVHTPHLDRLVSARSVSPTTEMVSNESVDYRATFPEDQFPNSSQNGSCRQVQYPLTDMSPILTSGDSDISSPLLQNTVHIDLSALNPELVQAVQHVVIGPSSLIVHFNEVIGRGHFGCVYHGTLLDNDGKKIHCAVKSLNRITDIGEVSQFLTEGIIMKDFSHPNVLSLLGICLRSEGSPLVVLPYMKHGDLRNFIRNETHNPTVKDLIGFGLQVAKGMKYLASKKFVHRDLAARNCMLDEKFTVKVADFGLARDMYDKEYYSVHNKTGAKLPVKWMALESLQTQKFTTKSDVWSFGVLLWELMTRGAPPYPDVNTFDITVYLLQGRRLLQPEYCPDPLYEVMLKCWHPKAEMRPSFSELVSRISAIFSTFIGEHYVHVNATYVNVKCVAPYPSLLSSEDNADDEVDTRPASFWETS

For `Nc1c(-c2ccc(NC(=O)Nc3cccc(C(F)(F)F)c3)cc2)cnc2c(-c3ccc4c(c3)OCO4)cnn12`, the Ki is > 3.16 µM (inactive) in assay [1], > 6.31 µM (inactive) on Focal adhesion kinase 1, > 2.51 µM (inactive) in assay [2] and 0.00794 µM (active) in assay [3].
In the case of `CCN1C(=Cc2sc3ccccc3[n+]2C)C=Cc2cccc(C)c21`, the EC50 in [4] is < 0.1 µM (active); in [5], 0.142 µM (active); in assay [6], 1.86 µM (active); on Hexokinase-1, > 80 µM (inactive); in assay [7] it was 37.3 µM (active).
For `O=C(Nc1cc(-c2c[nH]c3ncccc23)cc(Cl)n1)c1ccccc1`, the results for the Ki in assay [8], in assay [9] and in assay [10] were > 5.01 µM (inactive), 0.00158 µM (active) and > 3.16 µM (inactive), respectively.
For `CNC[C@H](Cc1ccccc1)NC[C@@H](Cc1cccc2ccccc12)NCCc1ccc(C)cc1`, the EC50 in assay [11] was 9.44 µM (active).
With `O=C(N/N=C/c1c(O)ccc2ccccc12)c1[nH]ncc1Br`, the EC50 in “cells [12]” was 10.7 µM (active); in the assay “cells [13]”, 7.76 µM (active); with BJ [14], 10.5 µM (active); with BJ [15] it was 24.6 µM (active). In addition, the IC50 at Prothrombin was 91.6 µM (active).
Take `O=C(Cc1ccccc1Cl)NC1(O)C(=O)c2ccccc2C1=O`: the IC50 on SUMO-activating enzyme was 26 µM (active).
